Key:
[1] = molecular target: T1, PICK1 pre-bound to TacDAT C24 (Rattus norvegicus, UniProt Q9EP80); assay: SCMS dissociation of pre-bound PICK1; format: binding; conditions: pre-bound PICK1 on TacDAT C24 SCMS
T1 construct: Partner: transfected HEK293-GT cells, ruptured into membrane sheets
Description: Human Embryo Kidney 293 GripTite cells (HEK293-GT) for SCMS were grown i in Dulbecco's modified Eagle's medium 1965 with fetal calf serum and pen-strep antibiotics. Cells were transfected using TAC-YFP-DATC24 DNA (pEYFP-C1 vector) and lipovectamin in opti-MEM® overnight. Cells were washed once with PBS and detached using 0.5% Trypsin with EDTA. Cells were then seeded into 6-well plates and allowed to grow and attach overnight at 37° C. in humidified 10% CO2 atmosphere.
The SCMS was prepared as described in (Perez et al., 2006). In brief, round cover glasses were plasma cleaned and coated with 0.3 mM poly-L-ornithine hydrobromide (Poly-ORN) for 30 min. The coating Poly-ORN was then removed. Seeded and transfected cells were then washed twice to allow them to swell. The swelled cells were then covered with the cover glass with the Poly-ORN coated side facing down on the cells. Dynamic pressure was manually applied to the cover glass using the piston from a 12 ml plastic syringe for a total of 1 min. The force from removing the cover glass causes some cells to rupture and leave a SCMS on the surface of the cover glass. […] A protein solution was then added to the cover glass and left to incubate for the desired amount of time depending on the experiment. […] The protein: peptide solution was then added to the SCMS-cover glass and incubated for 2 hours. […]

[2] = Plasma stability; format: in vitro ADME; conditions: human, 37° C., 24 h incubation
Description: (§1) 360 μL undiluted human male serum (Sigma; H4522) or PBS was kept at 37° C. for 15 min, followed by addition of 40 μL (500 uM) of relevant peptide and subsequent incubation at 37° C. For stability analysis, 45 μL samples was taken out at t=0 min and t=24 hrs, and samples quenched by addition of 50 μL 6M urea followed by incubation at 37° C. for additional 30 min. 50 μL 20% TCA (W7V) in acetone was added to each sample before incubation for at least 16 hrs at 5° C. Samples were centrifuged at 14.000×g for 30 min and supernatants collected and filtered using a 0.22 μm syringe filter. Samples were analyzed on an Acquity UPLC H-Class instrument using a C18 column with a 15 min 10-80% […] gradient. Remaining analyte (%) was calculated as the area under curve (AUC) of the main peak at indicated time points relative to the sample at t=0 min.

[3] = PBS stability; format: physicochemical; conditions: 37° C., 24 hrs
Description: as §1

[4] = tested on: SNI mice; assay: Spared nerve injury (SNI) model, Von Frey test, intrathecal or i.p. administration; format: in vivo
Description: Spared nerve injury model (SNI) was performed according to methods described in Richner et al., 2011. Briefly, under isoflurane (2%) anaesthesia, the skin on the left lateral surface of the thigh was incised and the biceps femoris muscle was divided and spread lengthwise to expose the three branches of the sciatic nerve. After exposing the three branches (common peroneal, tibial and sural) in anesthetized mice, the common peroneal and tibial branches were carefully segregated from surrounding tissues, tightly ligated and axotomized ˜2 mm of the distal nerve stump, while the sural branch was left intact.
Drugs were administered either intrathecally to anesthetized mice or intraperitoneally (i.p.).
The development and level of mechanical threshold was determined in the affected hind paws 2 days after the SNI procedure by using Von Frey filaments ranging from 0.02 to 1.4 g. In the current experiments filaments in ascending order were applied to the lateral part of the hind paws. Each Von Frey hair was applied five times over a total period of 30 seconds and the mouse's reaction was assessed after each application; the threshold for a positive test was set at 3 trials, which evoked responses out of a maximum of 5 trials. […] Forces of the instrument are measured with units “g” and represent the gram-forces. […]

[5] = tested on: SNI mice; assay: SNI neuropathic pain model, subcutaneous administration, Von Frey; format: in vivo; conditions: 10 μmol/kg s.c.
Description: Mice: 8 weeks old C57BI6J mice (from Charles River)
10 μmol/kg peptide solution was subcutaneously administered (100 μL/10 g).
Spared Nerved Injury surgery: The surgery was performed on anaesthetized mice. A complete ligature and transection of the common peroneal and tibial distal branches of the sciatic nerve was performed, leaving the sural branch intact. The operated side is referred to as the ipsilateral side and the non-operated side is referred to as the contralateral side. 7 days post-surgery, a decrease of threshold response to Von Frey filaments of ipsilateral hind paw was observed.
Mechanical threshold response: The mechanical threshold response of the operated mice was measured with calibrated Von Frey filaments using up/down method, and the 50% threshold (g) was calculated (see equation 1). Mechanical pain responses are defined as paw withdrawal, flinching and/or paw licking following filament prick. The experimenter was blinded to mice treatment. One baseline measure was performed before surgery, one measure 7 days after surgery (D+7) before drug's administration. One measure was performed 1 h, 2 h, 3 h and 4 h post drug administration. n=8 mice/timepoint for peptide treatment.
Statistical analysis: Statistical analysis was performed using Graphpad Prism 7.0. Pain threshold, measured as paw withdrawal threshold, was compared between time “before drug effect” and time points after drug administration (+1, +2, +3, +4 hrs), or against vehicle control (all time points). Two-way RM ANOVA followed by Dunnet's multiple comparison tests. Significance level set to p<0.05.

[6] = FPLC size exclusion chromatography of CPP variants in PBS; format: physicochemical; conditions: Superdex 200 Increase 10/300, relative to P4-(C5)2
Description: All samples were run in a 200 μL volume on a Superdex 200 Increase 10/300 column on an AKTA purifier FPLC system. The absorbance at 280 nm as a function of elution volume was normalized to the maximal absorbance of each peptide and plotted using GraphPadPrism 7.0.

[7] = molecular target: T2, PICK1 (Rattus norvegicus, UniProt Q9EP80); assay: biochemical; format: binding; conditions: for Fold affinity change: compared to TAT-P4-(C5)2
T2 construct: made in house; host or cells: E. coli BL21-DE3-pLysS
Description: The data was plotted in GraphPad Prism 7.0 and fitted to a ‘One site-Fit’ Ki curve and the apparent affinities (Ki) for the unlabelled peptides were determined using correction for depletion.

[8] = molecular target: T3, PICK1 PDZ domain (Rattus norvegicus, UniProt Q9EP80); assay: Fluorescence polarization competition binding to PICK1 (Example 1); conditions: PEGx dimerization of C5
T3 construct: made in house; host or cells: E. coli BL21-DE3-pLysS
T3 sequence (Q9EP80 whole entry, the tested form may be a part): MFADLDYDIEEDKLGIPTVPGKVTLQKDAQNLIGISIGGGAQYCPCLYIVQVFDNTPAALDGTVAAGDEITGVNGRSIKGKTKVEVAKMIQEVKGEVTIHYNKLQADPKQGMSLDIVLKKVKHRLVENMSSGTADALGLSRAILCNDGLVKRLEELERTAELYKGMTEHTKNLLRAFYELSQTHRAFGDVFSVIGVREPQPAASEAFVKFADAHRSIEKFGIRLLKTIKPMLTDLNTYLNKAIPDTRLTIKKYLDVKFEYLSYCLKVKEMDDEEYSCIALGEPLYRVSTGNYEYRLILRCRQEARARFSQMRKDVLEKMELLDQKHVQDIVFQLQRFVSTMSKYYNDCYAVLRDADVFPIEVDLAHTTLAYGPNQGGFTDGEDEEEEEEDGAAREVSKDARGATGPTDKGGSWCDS
Description: Protein expression was induced with 10 mM Isopropyl β-D-1-thiogalactopyranoside (IPTG) and grown overnight at 20° C. […] Resuspended pellet was frozen at −80° C. to induce cell lysis. The bacterial suspension was thawed and cleared by centrifugation. The supernatant was collected and incubated with Glutathione-Sepharose 4B beads for 2 hrs at 4° C. under gentle rotation. […] Washed beads were transferred to a PD10 gravity column. Bead solution was incubated with thrombin protease overnight at 4° C. under gentle rotation.
Fluorescence polarization was carried out in saturation mode and competition mode.

T2 sequence (Q9EP80 whole entry): as the sequence (Q9EP80 whole entry, the tested form may be a part) above
T1 sequence (Q9EP80 whole entry): as the sequence (Q9EP80 whole entry, the tested form may be a part) above

SMILES: CC(C)C[C@H](NC(=O)[C@H](Cc1c[nH]c2ccccc12)NC(=O)[C@@H](N)Cc1cnc[nH]1)C(=O)N[C@@H](CCCCN)C(=O)N[C@H](C(=O)O)C(C)C [C5, HWLKV]
- dissociation of pre-bound PICK1 from SCMSs [1]: neither C5 nor TAT-(C5) could significantly dissociated PICK1 from SCMSs
- plasma stability [2]: full degradation
- stability in PBS [3]: good stability in PBS

SMILES: CCOC(=O)NC(=O)/C(C#N)=C/c1ccc(Cl)c(Cl)c1 [FSC231]
- mechanical hypersensitivity / withdrawal threshold, acute phase ([4]; intrathecal, two days after operation): did not affect withdrawal threshold

SMILES: CC(C)C[C@H](NC(=O)[C@H](C)NC(=O)[C@H](CCCCN)NC(=O)[C@H](CC(C)C)NC(=O)[C@H](C)NC(=O)[C@H](CC(C)C)NC(=O)[C@H](CCCCN)NC(=O)[C@H](CC(C)C)NC(=O)[C@H](C)NC(=O)[C@H](CC(C)C)NC(=O)[C@@H](N)CCCCN)C(=O)N[C@@H](CCCCN)C(=O)N[C@@H](C)C(=O)N[C@@H](C)C(=O)N[C@@H](CC(C)C)C(=O)N[C@@H](CCCCN)C(=O)N[C@@H](CC(C)C)C(=O)N[C@@H](C)C(=O)N(CCOCCOCCC(=O)N[C@@H](Cc1c[nH]cn1)C(=O)N[C@@H](Cc1c[nH]c2ccccc12)C(=O)N[C@@H](CC(C)C)C(=O)N[C@@H](CCCCN)C(=O)N[C@H](C(=O)O)C(C)C)CCOCCOCCC(=O)N[C@@H](Cc1c[nH]cn1)C(=O)N[C@@H](Cc1c[nH]c2ccccc12)C(=O)N[C@@H](CC(C)C)C(=O)N[C@@H](CCCCN)C(=O)N[C@H](C(=O)O)C(C)C [MAP-P4-(C5)2]
- ipsilateral paw mechanical threshold compared to before drug administration ([5]; 1 h): significant increase
- ipsilateral paw mechanical threshold compared to before drug administration ([5]; 2 h): significant increase
- ipsilateral paw mechanical threshold compared to vehicle ([5]; 2 h): significant increase
- in-solution oligomeric behavior from elution volume [6]: forms higher oligomeric structures than P4-(C5)2
- Ki [7]: 5.1 nM
- Fold affinity change [7]: 0.8 fold

SMILES: CC(C)C[C@H](NC(=O)[C@H](Cc1c[nH]c2ccccc12)NC(=O)[C@H](Cc1c[nH]cn1)NC(=O)CCOCCOCCOCCOCCOCCC(=O)N[C@@H](Cc1c[nH]cn1)C(=O)N[C@@H](Cc1c[nH]c2ccccc12)C(=O)N[C@@H](CC(C)C)C(=O)N[C@@H](CCCCN)C(=O)N[C@H](C(=O)O)C(C)C)C(=O)N[C@@H](CCCCN)C(=O)N[C@H](C(=O)O)C(C)C [P4-(C5)2, PEG4-(HWLKV)2]
- fold increase in affinity compared to monomeric C5 [8]: 15 fold

SMILES: CC[C@H](C)[C@H](NC(=O)[C@H](CCCCN)NC(=O)[C@@H](NC(=O)[C@H](CCC(N)=O)NC(=O)[C@@H](N)CCCNC(=N)N)[C@@H](C)CC)C(=O)N[C@@H](Cc1c[nH]c2ccccc12)C(=O)N[C@@H](Cc1ccccc1)C(=O)N[C@@H](CCC(N)=O)C(=O)N[C@@H](CC(N)=O)C(=O)N[C@@H](CCCNC(=N)N)C(=O)N[C@@H](CCCNC(=N)N)C(=O)N[C@@H](CCSC)C(=O)N[C@@H](CCCCN)C(=O)N[C@@H](Cc1c[nH]c2ccccc12)C(=O)N[C@@H](CCCCN)C(=O)N[C@@H](CCCCN)C(=O)N(CCOCCOCCC(=O)N[C@@H](Cc1c[nH]cn1)C(=O)N[C@@H](Cc1c[nH]c2ccccc12)C(=O)N[C@@H](CC(C)C)C(=O)N[C@@H](CCCCN)C(=O)N[C@H](C(=O)O)C(C)C)CCOCCOCCC(=O)N[C@@H](Cc1c[nH]cn1)C(=O)N[C@@H](Cc1c[nH]c2ccccc12)C(=O)N[C@@H](CC(C)C)C(=O)N[C@@H](CCCCN)C(=O)N[C@H](C(=O)O)C(C)C [PNT-P4-(C5)2]
- ipsilateral paw mechanical threshold compared to before drug administration ([5]; any time-point): did not show significant increase
- ipsilateral paw mechanical threshold compared to vehicle ([5]; any time-point): no significant increase
- in-solution oligomeric behavior from elution volume [6]: smaller oligomers than P4-(C5)2 or direct interaction with the column material

SMILES: CC(C)C[C@H](NC(=O)[C@H](Cc1c[nH]c2ccccc12)NC(=O)[C@H](Cc1cnc[nH]1)NC(=O)[C@H](CCCNC(=N)N)NC(=O)[C@H](CCCNC(=N)N)NC(=O)[C@H](CCCNC(=N)N)NC(=O)[C@H](CCC(N)=O)NC(=O)[C@H](CCCNC(=N)N)NC(=O)[C@H](CCCNC(=N)N)NC(=O)[C@H](CCCCN)NC(=O)[C@H](CCCCN)NC(=O)[C@H](CCCNC(=N)N)NC(=O)CNC(=O)[C@@H](N)Cc1ccc(O)cc1)C(=O)N[C@@H](CCCCN)C(=O)N[C@H](C(=O)O)C(C)C [TAT-C5]
- plasma stability [2]: improved
- stability in PBS [3]: good stability in PBS

SMILES: CC[C@H](C)[C@H](NC(=O)[C@H](CCCCN)NC(=O)CNC(=O)[C@H](CC(C)C)NC(=O)[C@H](CC(C)C)NC(=O)[C@H](Cc1ccc(O)cc1)NC(=O)CNC(=O)[C@H](C)NC(=O)[C@H](CO)NC(=O)[C@H](CC(N)=O)NC(=O)[C@H](CC(C)C)NC(=O)[C@@H](NC(=O)[C@H](Cc1c[nH]c2ccccc12)NC(=O)CN)[C@@H](C)O)C(=O)N[C@@H](CC(N)=O)C(=O)N[C@@H](CC(C)C)C(=O)N[C@@H](CCCCN)C(=O)N[C@@H](C)C(=O)N[C@@H](CC(C)C)C(=O)N[C@@H](C)C(=O)N[C@@H](C)C(=O)N[C@@H](CC(C)C)C(=O)N[C@@H](C)C(=O)N[C@@H](CCCCN)C(=O)N[C@@H](CCCCN)C(=O)N[C@H](C(=O)N[C@@H](CC(C)C)C(=O)N(CCOCCOCCC(=O)N[C@@H](Cc1c[nH]cn1)C(=O)N[C@@H](Cc1c[nH]c2ccccc12)C(=O)N[C@@H](CC(C)C)C(=O)N[C@@H](CCCCN)C(=O)N[C@H](C(=O)O)C(C)C)CCOCCOCCC(=O)N[C@@H](Cc1c[nH]cn1)C(=O)N[C@@H](Cc1c[nH]c2ccccc12)C(=O)N[C@@H](CC(C)C)C(=O)N[C@@H](CCCCN)C(=O)N[C@H](C(=O)O)C(C)C)[C@@H](C)CC [TP10-P4-(C5)2]
- ipsilateral paw mechanical threshold compared to before drug administration ([5]; 2 h): significant increase
- ipsilateral paw mechanical threshold compared to vehicle ([5]; 2 h): significant increase
- in-solution oligomeric behavior from elution volume [6]: smaller oligomers than P4-(C5)2 or direct interaction with the column material
- Fold affinity change [7]: 0.5 fold

SMILES: NCC1(CC(=O)O)CCCCC1 [gabapentin]
- mechanical hypersensitivity, chronic phase ([4]; 30 mg/kg i.p., day 14 after surgery, at 2 hours): full recovery from mechanical hypersensitivity

From patent US20250215052A1, “INHIBITORS OF PICK1 AND USES THEREOF” (University of Copenhagen, priority 2018, published 2025)
